Laboratory results as given in patent US6204293A, “Inhibitors of protein isoprenyl transferases” (University of Pittsburgh, priority 1998, dated 2001).
Counter-ions that a name gives are not always drawn. Like-named read-outs stand apart in the source and are kept apart here. Each block holds one molecule with its values, some of them ahead of it.

Target: T1, Rat brain protein farnesyltransferase (Rattus norvegicus, UniProt Q02293+Q04631)
T1 construct: Rat brain protein farnesyltransferase activity is measured; from tissue; host or cells: rat brain
Test: % inhibition of farnesylation, scintillation proximity assay with biotin-K Ras B fragment
Format: biochemical
Conditions: for % inhibition at 1 × 10^-8 M: Table 4
Method in brief: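 Rat brain enzyme, purified through three steps, in a scintillation proximity assay kit with biotin-K Ras B fragment substrate at 0.1 mM final. Value is % inhibition of farnesylation.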

[1] = read-out: % inhibition at 1 × 10^-7 M, Table 3, 1 × 10^-7 M

T1 sequence (Q02293 whole entry, one chain of several): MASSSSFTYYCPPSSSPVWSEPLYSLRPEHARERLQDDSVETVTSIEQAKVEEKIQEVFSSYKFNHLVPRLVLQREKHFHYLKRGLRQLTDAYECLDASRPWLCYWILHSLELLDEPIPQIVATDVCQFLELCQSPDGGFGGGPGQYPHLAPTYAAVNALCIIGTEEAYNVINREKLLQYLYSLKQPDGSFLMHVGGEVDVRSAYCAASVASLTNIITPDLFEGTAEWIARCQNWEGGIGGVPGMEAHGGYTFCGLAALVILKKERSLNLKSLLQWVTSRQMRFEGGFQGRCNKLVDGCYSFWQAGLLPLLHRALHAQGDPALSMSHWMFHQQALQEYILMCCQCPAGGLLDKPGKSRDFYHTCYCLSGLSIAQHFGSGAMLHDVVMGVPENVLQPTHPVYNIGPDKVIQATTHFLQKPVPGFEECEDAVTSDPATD

Structure (SMILES): CSCC[C@H](NC(=O)c1ccc(CCc2ccccc2Oc2ccccc2)cc1-c1ccccc1C)C(=O)[O-].[Li+] [Example 455]
% inhibition at 1 × 10^-7 M (Table 3, 1 × 10^-7 M): 83%

inhibition at 0.1 µM [1]: 96%
Structure (SMILES): CSCC[C@H](NC(=O)c1ccc(COCc2ccc(-c3ccc(F)c(Cl)c3)o2)cc1-c1ccccc1C)C(=O)O [Example 450, N-[4-(5-(3-chloro-4-fluorophenyl)furan-2-ylmethoxymethyl)-2-(2-methylphenyl)benzoyl]methionine lithium salt]

% inhibition at 1 × 10^-6 M (Table 2, 1 × 10^-6 M): 58%
Structure (SMILES): CCOC(=O)c1ccc(NCc2ccc(C(=O)N[C@@H](CCSC)C(=O)O)c(-c3ccccc3)c2)cc1 [Example 646]

% inhibition at 1 × 10^-6 M (Table 2, 1 × 10^-6 M): 32%
Structure (SMILES): CSCCC(CO)NCc1ccc(C(=O)N[C@@H](CCSC)C(=O)O)c(-c2ccccc2)c1 (some centres unmarked) [Example 633]

inhibition at 1 µM (read-out: % inhibition at 1 × 10^-6 M, Table 2, 1 × 10^-6 M): 91%
Structure (SMILES): CSCC[C@H](NC(=O)c1ccc(OC/C=C(\C)CC/C=C(\C)CCC=C(C)C)cc1-c1ccccc1C)C(=O)O [Example 547, N-[4-farnesyloxy-2-(2-methylphenyl)benzoyl]methionine, lithium salt]

% inhibition at 1 × 10^-6 M (Table 2, 1 × 10^-6 M): 91%
Structure (SMILES): CSCC[C@H](NC(=O)c1ccc(CN(C(C)C)C2(CC3CCCCC3)CC2)cc1-c1ccccc1C)C(=O)O [Example 326]

% inhibition at 1 × 10^-7 M (Table 3, 1 × 10^-7 M): 95%
Structure (SMILES): CSCC[C@H](NC(=O)c1ccc(CN(CCC2CCCCC2)S(C)(=O)=O)cc1-c1ccccc1C)C(=O)O [Example 611]

% inhibition at 1 × 10^-6 M (Table 2, 1 × 10^-6 M): 95%
Structure (SMILES): CSCC[C@H](NC(=O)c1ccc(/C=C/c2cnccn2)cc1-c1ccccc1C)C(=O)O [Example 495]

% inhibition at 1 × 10^-6 M (Table 2, 1 × 10^-6 M): 95%
Structure (SMILES): CSCC[C@H](NC(=O)c1ccc(CN(C(C)C)C2(CC3CCCCC3)CCCC2)cc1-c1ccccc1C)C(=O)O [Example 344]

% inhibition at 1 × 10^-8 M: 96%
Structure (SMILES): CSCC[C@H](NC(=O)c1ccc(CN(Cc2ccccc2)c2ccc([N+](=O)[O-])cc2)cc1-c1ccccc1C)C(=O)O [Example 843]

% inhibition at 1 × 10^-6 M (Table 2, 1 × 10^-6 M): 92%
Structure (SMILES): CSCC[C@H](NC(=O)c1ccc(CN2CCC(OCc3ccccc3)C2)cc1-c1ccccc1C)C(=O)O (some centres unmarked) [Example 988]

inhibition at 0.1 µM (read-out: % inhibition at 0.1 μM (*), Table 6, * footnote 0.1 μM (title: 0.1 mM)): 76%
Structure (SMILES): CSCC[C@H](NC(=O)c1ccc(COCc2cccc(CO)c2)cc1-c1ccccc1C)C(=O)O [Example 1044, N-[4-(3-hydroxymethylbenzyloxymethyl)-2-(2-methylphenyl)benzoyl]methionine,lithium salt]

% inhibition at 1 × 10^-7 M (Table 3, 1 × 10^-7 M): 87%
Structure (SMILES): CSCC[C@H](NC(=O)c1ccc(CCc2ccccc2Cc2ccccc2)cc1-c1ccccc1C)C(=O)O [Example 458]

% inhibition at 1 × 10^-6 M (Table 2, 1 × 10^-6 M): 71%
Structure (SMILES): CSCC[C@H](NC(=O)c1ccc(CN2CCN(c3ccccc3)CC2)cc1-c1ccccc1C)C(=O)O [Example 867]

% inhibition at 1 × 10^-8 M: 85%
Structure (SMILES): CSCC[C@H](NC(=O)c1ccc(CN(Cc2ccccc2)c2cccc(C(C)=O)c2)cc1-c1ccccc1C)C(=O)O [Example 845]

% inhibition at 1 × 10^-8 M: 95%
Structure (SMILES): CSCC[C@H](NC(=O)c1ccc(CN(CCC2CCCCC2)C2CC2)cc1-c1ccccc1C)C(=O)O [Example 880]

% inhibition at 1 × 10^-6 M (Table 2, 1 × 10^-6 M): 85%
Structure (SMILES): CSCC[C@H](NC(=O)c1ccc(CN(Cc2ccccc2)c2ccccc2Cl)cc1-c1ccccc1C)C(=O)O [Example 846]

% inhibition at 1 × 10^-6 M (Table 2, 1 × 10^-6 M): 98%
Structure (SMILES): CSCC[C@H](NC(=O)c1ccc(NC(=O)C2=C(C(F)(F)F)C=CNC2)cc1-c1ccccc1)C(=O)O [Example 283]

% inhibition at 1 × 10^-6 M (Table 2, 1 × 10^-6 M): 57%
Structure (SMILES): CSCC[C@H](NC(=O)c1ccc(NC(=O)[C@@H](N)COCc2ccccc2)cc1-c1ccccc1)C(=O)O [Example 503]

% inhibition at 1 × 10^-6 M (Table 2, 1 × 10^-6 M): 99%
Structure (SMILES): CSCC[C@H](NC(=O)c1ccc(CNC(CC2CCCCC2)C(O)C(O)CC(C)C)cc1-c1ccccc1C)C(=O)O (some centres unmarked) [Example 528]

Structure (SMILES): CSCC[C@H](NC(=O)c1ccc(COCc2cccc3ccccc23)cc1-c1ccccc1C)C(=O)O [Example 584, N-[4-(naphth-1-ylmethoxymethyl)-2-(2-methylphenyl)benzoyl]methionine lithium salt]
inhibition at 0.1 µM (read-out: % inhibition at 1 × 10^-7 M): 96%

inhibition at 0.1 µM [1]: 96%
Structure (SMILES): CSCC[C@H](NC(=O)c1ccc(CSC2=NCCS2)cc1-c1ccccc1C)C(=O)O [Example 730]

% inhibition at 1 × 10^-5 M (Table 1, 1 × 10^-5 M): 55%
Structure (SMILES): CSCC[C@H](NC(=O)c1ccc(CNc2cc(C)cc(C)c2)cc1-c1ccccc1)C(=O)O [Example 709]
